{
  "source": "paper PMC11784013",
  "about": "“Potassium molybdate blocks APN-dependent coronavirus entry by degrading receptor via PIK3C3-mediated autophagy” (Journal of Virology, 2024)",
  "key": {"ST cells": {"tested_on": "ST cells", "assay": "Cell Counting Kit 8 cytotoxicity assay in ST cells", "assay_type": "cell-based, swine", "conditions": "PM at concentrations less than 30 mM, 24 h", "experimental": "(§1) Fig 1 PM inhibits TGEV and PRCV infection in ST cells. (A) A cytotoxicity assay of PM in ST cells. ST cells cultured in a 96-well plate were incubated with different concentrations of PM for 24 h, which was tested by Cell Counting Kit 8. (B) Time course for PM inhibiting TGEV or PRCV or PEDV infection assay. (C–F) The ST cells, pretreated with PM at the indicated concentrations for 1 h were infected with TGEV Miller (0.1 MOI) or PRCV (0.1 MOI) for 1 h and were again treated with PM at 37°C for 17 h. The cell samples were collected and examined by real-time quantitative PCR (RT-qPCR), TCID50, western blot (C and D), and immunofluorescence assay (IFA) (E and F), scale bar: 50 µm. (G) Vero-E6 cells were treated with indicated PM and infected with PEDV LJX 01/2014 according to the time course of Fig. 1B, which was detected by TCID50 and western blot. Results are presented as mean ± SD of data from three independent experiments. ns, no significant; **, P ≤ 0.01; ***, P ≤ 0.001.\nST cells or intestinal organoids cultured in a 96-well plate were incubated with different concentrations of PM (0, 0.1, 0.25, 0.5, 1, 2.5, 5, 10, 20, and 30 mM) for 24 h. […] The absorbance of each well was then measured at 450 nm using a microplate reader to determine cell viability."}, "TGEV Miller": {"tested_on": "TGEV Miller", "assay": "TGEV infection of ST cells (RT-qPCR, TCID50, western blot, IFA)", "assay_type": "cell-based, transmissible gastroenteritis virus", "conditions": "TGEV Miller 0.1 MOI, PM 1 h pretreatment and 17 h after infection, TCID50, western blot, IFA", "experimental": "as §1\nFig 3 PM inhibits TGEV and PRCV infection by potassium ion and molybdate synergy. […] The cell samples were measured by RT-qPCR. (C and D) ST cells were treated with PM (K2MoO4, 10 mM), KCl (20 mM), Na2MoO4 (10 mM), sodium chloride (NaCl, 10 mM), K2MoO4 (10 mM), and NaCl (20 mM) as well as Na2MoO4 (10 mM) and KCl (20 mM) for 1 h and then infected with TGEV Miller (0.1 MOI) or PRCV (0.1 MOI) for 17 h, which was determined by RT-qPCR and TCID50. […]\nTotal RNA was extracted using RNAiso reagent (TaKaRa, Japan, 9109) and reverse transcribed into cDNA using HiScript Q RT SuperMix for qPCR (Vazyme, China, R223-01), both of which followed the manufacturer’s recommendations. The TGEV and PRCV virus copy numbers were detected by the TaqMan probe-based RT-qPCR method developed previously in our laboratory ([59]). Relative qPCR was also performed using ChamQ SYBR qPCR master mix (Vazyme, China, Q311-02), and the results were calculated via the 2^-ΔΔCT method."}},
  "data": [
    {"smiles": "[K+].[K+].[O]=[Mo](=[O])([O-])[O-]", "note": "[PM, potassium molybdate]", "values": [
      {"measurement": "cytotoxicity (Cell Counting Kit 8)", "setting": "ST cells", "result": "did not exhibit significant cytotoxicity"},
      {"measurement": "TGEV infection", "setting": "TGEV Miller", "result": "effectively restricted"}
    ]}
  ]
}
